Experiments:
[1] = test system: MEFs infected with the four factors (Oct4, Sox2, Klf4 and c-Myc); assay type: cell-based, mouse; details: 2 mM; 4-factor infected MEFs
Procedure: FIG. 1(a) MEFs infected with the four factors (Oct4, Sox2, Klf4 and c-Myc) were treated with various chemicals for a week, the percentage of Oct4-GFP positive cells induced was measured through FACS analysis, and compared to infected MEFs without treatment or treated with DMSO (the solvent for Dexamethasone, SAHA and TSA). The chemicals used were: 5′-azaC (2 μM), dexamethasone (dex, 1 μM), 5′-azaC (2 μM) together with dexamethasone (1 μM), VPA (2 mM), SAHA (5 μM) and TSA (20 nM). n=4 for each treatment. For all figures in this study, standard deviations are indicated by error bars, and P values by two-tailed student t-test less than 0.05, 0.01 and 0.001 are indicated by one, two and three asterisks respectively.
To quantitate reprogramming efficiency, we established an assay based on Fluorescence-Activated Cell Sorting (FACS) analysis using an Oct4-GFP transgenic reporter, where the expression of the green fluorescent protein (GFP) is controlled by the promoter and enhancers of Oct4, a pluripotent marker gene^14.
MEFs were derived from e13.5 embryos hemizygous for the Oct4-GFP transgenic allele. Embryos were sexed by inspecting gonads for the pattern of Oct4-GFP expression. Gonads and internal organs were removed before processing the embryos for MEF isolation. To generate iPS cells that can be identified in mouse chimeras after blastocyst injection, we derived MEFs from e13.5 embryos that are hemizygous for Oct4-GFP and heterozygous for the Rosa26-lacZ reporter allele. MEFs were grown in DMEM supplemented with 10% FBS, L-glutamine, penicillin/streptoMycin, nonessential amino acids, and sodium pyruvate. MEFs in early passages (up to passage 5) were used for generation of iPS cells.
Moloney-based retroviral vector (pMXs) containing the murine complementary DNAs of Oct4, Sox2, c-Myc, and Klf4 were obtained from Addgene^1. These plasmids were co-transfected into 293T cells with packaging vectors (pUMVC and pCMV-VSVG), and viral supernatants were collected 48 hours post-transfection to infect MEFs. Two to three rounds of infection were performed during a 48 hour period. The first day after viral supernatants were removed was defined as 0 day post-infection. Infected MEFs were subsequently cultured in mouse ES cell media (Knockout DMEM supplemented with 15% Hyclone FBS, L-glutamine, penicillin/streptoMycin, nonessential amino acids, β-mercaptoethanol, and with 1000 U/ml LIF), and treated with small molecules or growth factors for a week starting from 1 or 2 days post-infection. […] All conditions were tested in quadruplicates.

[2] = test system: MEFs infected with Oct4, Sox2 and Klf4; assay: GFP positive iPS colony number in 3-factor infected MEFs; assay type: cell-based, mouse
Text: FIG. 2(c) Representative pictures at 16 days post-infection showing a significant increase of GFP positive iPS colonies in 3-factor infected MEFs with VPA treatment compared to non-treated control.
Retroviral introduction of c-Myc could cause tumorigenecity in cells derived from the iPS cells thus generated^2. […] Similar low efficiency was also reported for induction of iPS cells from mouse fibroblasts without c-Myc^24. We tested whether treating the cells with 5′-azaC or VPA improves the efficiency of iPS colony formation without the need for c-Myc. MEFs were first infected with Oct4, Sox2 and Klf4, then treated with 5′-azaC or VPA for a week starting 1 day post-infection. […] Consistent with the FACS data, a 30-40 fold increase of GFP positive colonies was observed compared to control MEFs without treatment (FIG. 2c). This allowed for picking of iPS colonies within two weeks post-infection, sooner than the typical ˜30 days post-infection or later without chemical treatment^13, 24.
For the generation of mouse iPS cells, infected MEFs were cultured in mouse ES cell media until iPS colonies were ready to be picked. In some experiments, knockout serum replacement was used instead of the Hyclone FBS in the mouse ES cell media, which appeared to accelerate the reprogramming process, consistent with a recent report^26. […]

[3] = test system: MEFs infected with the four factors (Oct4, Sox2, Klf4 and c-Myc); assay: cells; assay type: cell-based, mouse; details: Mus musculus; 4-factor infected MEFs; dose response; read-out: EC50 of reprogramming efficiency (percentage of Oct4-GFP positive cells induced)
uninfected MEFs = assay: Microarray analysis on uninfected MEFs treated with VPA; assay type: cell-based, mouse
Text: (a) Genes that were specifically expressed in ES cells and MEFs (>10 fold difference) were selected, and scatter plot was generated to visualize the effect of VPA treatment on the expression of these genes. Each blue dots represent one gene, and the position of the blue dot indicate the relative expression level, the average signal (AVE_signal), in MEFs treated with VPA versus untreated. The thick red line indicates identical expression levels. The two adjacent red lines indicate positions where VPA treatment causes a two fold up or down-regulation of the gene expression.
(b) Examples of the relative levels of expression of ES cell-specific transcripts (Rex3 and Zfp7) in ES cells, iPS-m cells, untreated MEFs and MEFs treated with VPA.
(c) Examples of the relative levels of expression of MEF-specific transcripts (Aspn and Meox2) in ES cells, iPS-m cells, untreated MEFs and MEFs treated with VPA.
Therefore, VPA partially reprograms MEFs towards more ES cell-like.
For transcriptional analysis, total RNA was isolated from cells cultured in 6 well dishes using RNeasy Mini Kit and QlAshredder from Qiagen. Biotinylated antisense RNA were amplified using Illumina Total Prep RNA amplification Kit from Ambion, hybridized to Illumina Whole-Genome Expression BeadChips (MouseRef-8) and analyzed by Illumina Beadstation 500. All samples were prepared in two to three biological repeats. Data were analyzed using the Beadstudio software provided by Illumina.

[4] = test system: primary human fibroblasts, BJ and NHDF, infected by Oct4, Sox2 and Klf4; assay: iPS colony induction in 3-factor (Oct4, Sox2, Klf4) infected human fibroblasts; assay type: cell-based
Text: AP^+ colonies were compared for 3-factor (Oct4, Sox2 and Klf4) infected BJ fibroblasts with or without VPA treatment at 25 days post-infection.
In the published reprogramming protocol, infected human fibroblasts are typically cultured in fibroblast media first, then reseeded on feeders and switched to hES cell media about a week post-infection. In the modified protocol, human fibroblasts were replated immediately after infection, treated with VPA in hES media, and subsequently cultured in hES media.
The efficiency of iPS colony induction by 3 factors (Oct4, Sox2 and Klf4) and 2 factors (Oct4 and Sox2) with VPA treatment are plotted. Each dot represents one experiment; each bar represents the average for each condition.
Human fibroblasts were first infected by Moloney murine leukemia retroviruses expressing the Oct4, Sox2 and Klf4 genes, and treated with VPA for 1 to 2 weeks.
Human fibroblasts were infected by different transcription factor combinations, and replated in fibroblast medium typically at 2×10^5 cells per well in gelatin-coated 6-well plates at 0 day post-infection. Cells were cultured in hES cell media starting from 1 day post-infection.

[5] = test system: MEFs infected with the four factors (Oct4, Sox2, Klf4 and c-Myc); assay: GFP positive iPS colony number in 4-factor infected MEFs; assay type: cell-based, mouse
Procedure: FIG. 1(c) Representative pictures at 11 days post-infection showing a significant increase of GFP positive iPS colonies in infected MEFs with VPA treatment compared to non-treated control.
Consistent with the FACS data, GFP positive iPS colonies emerge sooner and in greater numbers with VPA treatment. […] GFP positive colonies only start to emerge after 10 days post-infection in untreated cells.
For the generation of mouse iPS cells, infected MEFs were cultured in mouse ES cell media until iPS colonies were ready to be picked. In some experiments, knockout serum replacement was used instead of the Hyclone FBS in the mouse ES cell media, which appeared to accelerate the reprogramming process, consistent with a recent report^26. Chemical treatment started 1 or 2 days post-infection and lasted for a week in general. iPS colonies were picked between 9-21 days post-infection based on GFP expression and colony morphology. The picked colonies were then expanded and maintained on irradiated MEF feeder layers in mouse ES cell media.

[6] = uninfected MEFs, 2 mM VPA for a week

In the case of `CCCC(CCC)C(=O)O` [VPA, valproic acid], the “improvement over the non-treated control” value [1] is reported as “more than 100 fold”, the “increase of GFP positive colonies compared to control MEFs without treatment” value [2] is reported as 30-40 fold and the EC50 [3] is reported as 1900 µM. The “expression of ES cell-specific genes Rex3 and Zfp7” value (uninfected MEFs; MEFs treated with VPA versus untreated MEFs) was “up-regulated by more than twenty fold”, the “expression of MEF-specific genes Aspn and Meox2” value (uninfected MEFs; VPA treated MEFs versus untreated MEFs) was “down-regulated by more than twenty fold” and the “effect on endogenous c-Myc gene expression” value (uninfected MEFs; [6]) was “did not have a significant effect”. For the same molecule, the “share of the 214 genes down-regulated >10 fold in ES cells that are down-regulated by more than two fold” value (uninfected MEFs; [6]) was 55%, the “share of the 214 genes down-regulated >10 fold in ES cells that are up-regulated by more than two fold” value (uninfected MEFs; [6]) was 6.2% and the “share of the 968 genes up-regulated >ten fold in ES cells that are down-regulated by more than two fold” value (uninfected MEFs; [6]) was 4.5%. The “share of the 968 genes up-regulated >ten fold in ES cells that are up-regulated by more than two fold” value (uninfected MEFs; [6]) was 66%, the “promotion of the efficiency of iPS colony formation” value ([4]; human skin cells infected with the three factors) was roughly 30 fold and the “improvement over the first report on reprogramming by the same 3-factor combination (<0.001%)” value ([4]; optimized induction protocol together with VPA treatment) was 1000 fold. The “average number of GFP positive colonies” value ([5]; 8 days post-infection, out of 270,000 cells seeded, no colonies without chemical treatment) was 241 colonies and the “difference in colony number, treated versus non-treated” value ([5]; two weeks post-infection) was “more than 40 fold”.

From patent US20110014164A1, “EFFICIENT INDUCTION OF PLURIPOTENT STEM CELLS USING SMALL MOLECULE COMPOUNDS” (PRESIDENT AND FELLOWS OF HARVARD COLLEGE, priority 2008, published 2011)
